Measured values published in patent publication US8252326B2, “Self-microemulsifying dosage forms of low solubility active ingredients such as co-enzyme Q10” (Catalent Australia Pty Ltd., priority 2005, dated 2012).

Legend:
[1] = Solubility of coenzyme Q10 in oils, surfactants and co-surfactants; type: physicochemical
Method: To determine suitable excipient systems for actives, solubility studies were carried out on a variety of constituents of the inventive SMEDDS formulations. The solubility of Q10 in various oils, surfactants and co-surfactants were determined by placing an excess of the Q10 (approximately 2.5 g) in 22.5 g of the vehicle in screw capped glass bottles and heating the mixture to 55° C. in a water bath to facilitate the solubilization. Mixtures were equilibrated at room temperature for 24 hours and then filtered through 0.45 μm membrane filter to separate the undissolved drug. One gram of the filtered liquid mixtures were then weighed and diluted with cyclohexane and quantified by UV/Visible Spectrometry. Lemon oil and isopropyl myristate provided higher solubility than other oils. Although not limited to a theory of operation, it is believed that the oils form a distinct core in the interior of the surfactant aggregate when being dispersed in water, resulting in enhanced solubilizing capacity of the oils with improved drug loading capabilities of the emulsion.

[2] = cited from earlier work

SMILES: COC1=C(OC)C(=O)C(C/C=C(\C)CC/C=C(\C)CC/C=C(\C)CC/C=C(\C)CC/C=C(\C)CC/C=C(\C)CC/C=C(\C)CC/C=C(\C)CC/C=C(\C)CCC=C(C)C)=C(C)C1=O [Coenzyme Q10]
- Solubility of coenzyme Q10 (% w/w) ([1]; in Acetylated monoglycerides, room temperature 24 hours): 7.5 % w/w
- Solubility of coenzyme Q10 (% w/w) ([1]; in Capmul MCM C8, room temperature 24 hours): 1.50 % w/w
- Solubility of coenzyme Q10 (% w/w) ([1]; in Glyceryl mono-oleate, room temperature 24 hours): 2.41 % w/w
- Solubility of coenzyme Q10 (% w/w) ([1]; in Isopropyl myristate, room temperature 24 hours): 11.2 % w/w
- Solubility of coenzyme Q10 (% w/w) ([1]; in Labrafac Hydro WL1219, room temperature 24 hours): 3.17 % w/w
- Solubility of coenzyme Q10 (% w/w) ([1]; in Labrafil M 1944, room temperature 24 hours): 5.91 % w/w
- Solubility of coenzyme Q10 (% w/w) ([1]; in Labrafil M 2125, room temperature 24 hours): 5.35 % w/w
- Solubility of coenzyme Q10 (% w/w) ([1]; in Lauroglyco 1 FCC, room temperature 24 hours): 3.05 % w/w
- Solubility of coenzyme Q10 (% w/w) ([1]; in Lauroglyco 190, room temperature 24 hours): 3.06 % w/w
- Solubility of coenzyme Q10 (% w/w) ([1]; in Lemon oil, equilibrated at room temperature 24 hours, 0.45 μm filtered): 24.3 % w/w
- Solubility of coenzyme Q10 (% w/w) ([1]; in Medium chain triglycerides, room temperature 24 hours): 3.74 % w/w
- Solubility of coenzyme Q10 (% w/w) ([1]; in Oleic acid, room temperature 24 hours): 3.80 % w/w
- Solubility of coenzyme Q10 (% w/w) ([1]; in PEG 35 Castor oil, room temperature 24 hours): 2.34 % w/w
- Solubility of coenzyme Q10 (% w/w) ([1]; in Polysorbate 80, room temperature 24 hours): 0.370 % w/w
- Solubility of coenzyme Q10 (% w/w) ([1]; in Polysorbate 85, room temperature 24 hours): 1.57 % w/w
- Solubility of coenzyme Q10 (% w/w) ([1]; in Span 80, room temperature 24 hours): 3.24 % w/w
- Solubility of coenzyme Q10 (% w/w) ([1]; in Transcutol P, room temperature 24 hours): 0.260 % w/w
- Solubility in water [2]: practically insoluble in water
